Calls of active or inactive are those of the source. No cut-off for these calls is given here.
Assays:
[1] = target: T1, Indoleamine 2,3-dioxygenase 1 (Homo sapiens, UniProt P14902); experiment: Inhibition of IFNgamma-induced IDO1 in human HeLa cells using L-tryptophan as substrate after 24 hrs; type: cell-based
Target sequence in this assay (P14902 whole entry): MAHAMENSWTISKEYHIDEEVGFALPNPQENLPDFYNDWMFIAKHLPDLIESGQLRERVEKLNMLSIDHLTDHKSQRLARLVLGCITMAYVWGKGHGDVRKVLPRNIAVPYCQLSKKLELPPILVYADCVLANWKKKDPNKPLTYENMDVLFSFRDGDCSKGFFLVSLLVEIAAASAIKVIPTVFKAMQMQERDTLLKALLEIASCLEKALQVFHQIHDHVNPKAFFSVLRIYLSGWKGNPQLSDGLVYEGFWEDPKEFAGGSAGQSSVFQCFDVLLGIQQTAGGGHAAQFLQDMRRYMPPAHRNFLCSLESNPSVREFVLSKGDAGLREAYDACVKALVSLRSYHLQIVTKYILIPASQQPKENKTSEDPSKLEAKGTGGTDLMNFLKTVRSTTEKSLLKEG

HeLa [2] = experiment: Cytotoxicity against human HeLa cells assessed as reduction in cell viability at 10 to 30 uM after 24 hrs by MTT assay; type: cell-based
HeLa [3] = experiment: Inhibition of IFNgamma-induced IDO1 protein expression in human HeLa cells at IDO1 inhibitory IC50 after 24 hrs by Western blot method; type: functional, cell-based
[4] = target: Indoleamine 2,3-dioxygenase 1 (Mus musculus) (UniProt P28776); experiment: Inhibition of IDO1 in mouse B16F1 cells co-cultured with Balb/c mouse T-cells assessed as reversal of IDO1-mediated suppression of T-cell proliferation at 18 uM after 48 hrs by MTT assay; type: cell-based
[5] = target: Indoleamine 2,3-dioxygenase 1 (Mus musculus) (UniProt P28776); experiment: Inhibition of IDO1 in mouse B16F1 cells co-cultured with Balb/c mouse T-cells assessed as increase in IFN-gamma level at 18 uM after 48 hrs by ELISA; type: cell-based
[6] = target: Indoleamine 2,3-dioxygenase 1 (Mus musculus) (UniProt P28776); experiment: Inhibition of IDO1 in mouse B16F1 cells co-cultured with Balb/c mouse T-cells assessed as decrease in differentiation of Treg cells by measuring CD4+/CD25+/FOXP3 cells at 18 uM by FITC/APC/PE staining based flow cytometry (reference value: 11.7%); type: cell-based; set-up: scale not given: the % may be the effect or the level left
[7] = target: T1, Indoleamine 2,3-dioxygenase 1; experiment: Binding affinity to recombinant human IDO1 assessed as interaction with ferrous ion in enzyme active site by measuring absorbance maxima for ferrous heme at 2 mM by UV-Visible spectral analysis (reference value: 424 nanometer)
Target sequence in this assay (P14902 whole entry, looked up): as the sequence (P14902 whole entry) above

[8] = target: Indoleamine 2,3-dioxygenase 1 (Mus musculus) (UniProt P28776); experiment: Inhibition of IDO1 in mouse B16F1 cells co-cultured with Balb/c mouse T-cells assessed as reversal of IDO1-mediated suppression of T-cell proliferation at 1.5 uM after 48 hrs by MTT assay; type: cell-based
[9] = target: Indoleamine 2,3-dioxygenase 1 (Mus musculus) (UniProt P28776); experiment: Inhibition of IDO1 in mouse B16F1 cells co-cultured with Balb/c mouse T-cells assessed as increase in IFN-gamma level at 1.5 uM after 48 hrs by ELISA; type: cell-based
[10] = target: Indoleamine 2,3-dioxygenase 1 (Mus musculus) (UniProt P28776); experiment: Inhibition of IDO1 in mouse B16F1 cells co-cultured with Balb/c mouse T-cells assessed as reversal of IDO1-mediated suppression of T-cell proliferation at 30 uM after 48 hrs by MTT assay; type: cell-based
[11] = target: Indoleamine 2,3-dioxygenase 1 (Mus musculus) (UniProt P28776); experiment: Inhibition of IDO1 in mouse B16F1 cells co-cultured with Balb/c mouse T-cells assessed as increase in IFN-gamma level at 30 uM after 48 hrs by ELISA; type: cell-based
[12] = target: Indoleamine 2,3-dioxygenase 1 (Mus musculus) (UniProt P28776); experiment: Inhibition of IDO1 in mouse B16F1 cells co-cultured with Balb/c mouse T-cells assessed as decrease in differentiation of Treg cells by measuring CD4+/CD25+/FOXP3 cells at 30 uM by FITC/APC/PE staining based flow cytometry (reference value: 11.7%); type: cell-based; set-up: scale not given: the % may be the effect or the level left

Indoleamine 2,3-dioxygenase 1 (Mus musculus), sequence (P28776 whole entry, looked up): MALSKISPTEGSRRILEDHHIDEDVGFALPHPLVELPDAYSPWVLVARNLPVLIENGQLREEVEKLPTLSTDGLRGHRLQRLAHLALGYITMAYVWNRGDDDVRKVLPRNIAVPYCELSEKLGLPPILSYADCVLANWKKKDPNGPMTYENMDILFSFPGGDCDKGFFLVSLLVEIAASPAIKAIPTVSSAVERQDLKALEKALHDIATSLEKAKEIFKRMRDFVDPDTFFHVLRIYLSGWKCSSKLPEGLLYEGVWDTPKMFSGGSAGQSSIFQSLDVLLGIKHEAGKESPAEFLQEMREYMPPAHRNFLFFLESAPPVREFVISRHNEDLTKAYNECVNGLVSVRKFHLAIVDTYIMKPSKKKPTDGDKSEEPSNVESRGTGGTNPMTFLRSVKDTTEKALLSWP

| IC50 [1] [µM] | Structure (SMILES) | Activity (HeLa [2]) | other results |
| --- | --- | --- | --- |
| 6.08 | O=c1oc2ccc(Cl)cc2n1Cc1ccc(Cl)cc1 | Non-Toxic | inhibition (HeLa [3]): inactive; inhibition [4]: 52%; inhibition [5]: Active; Activity [6]: 8.7%; Activity [7]: 418 nm |
| 49.3 | O=C(Cn1c(=O)oc2ccccc21)c1cccc(Cl)c1 | Non-Toxic |  |
|  | OC(CC1c2ccccc2-c2cncn21)C1CCCCC1 (racemic) |  | inhibition [8]: Active; inhibition [9]: Active |
| > 100 | O=C(Cc1ccc(F)cc1)n1c(=O)oc2ccccc21 | Non-Toxic |  |
| 38.6 | O=C(Cn1c(=O)oc2ccccc21)c1ccc(Cl)cc1 | Non-Toxic |  |
| 76.6 | O=C(Cn1c(=O)oc2ccc(Cl)cc21)c1cccc(Cl)c1 | Non-Toxic |  |
| 6.4 | O=C(Cc1ccc(F)cc1)n1c(=O)oc2ccc(Cl)cc21 | Non-Toxic | inhibition (HeLa [3]): inactive; inhibition [4]: Active; inhibition [5]: Active; Activity [6]: 7.1% |
| 22.7 | Nc1nc2ccccc2n1C(=O)Cc1ccc(F)cc1 | Non-Toxic |  |
| 53.1 | O=C(Cn1c(=O)oc2ccccc21)c1ccc(F)cc1 | Non-Toxic |  |
| 62.7 | O=c1oc2ccc(Cl)cc2n1CC(O)c1ccc(Cl)cc1 (stereo not drawn) | Non-Toxic |  |
| 30.8 | O=c1oc2ccccc2n1Cc1cccc(F)c1 | Non-Toxic |  |
| 24.9 | O=C(Cn1c(=O)oc2ccc(Cl)cc21)c1ccc(Cl)cc1 | Non-Toxic |  |
| 9.75 | O=c1oc2ccc(Cl)cc2n1Cc1cccc(F)c1 | Non-Toxic | inhibition (HeLa [3]): inactive; inhibition [10]: Active; inhibition [11]: Active; Activity [12]: 6%; Activity [7]: 418 nm |
| 90.5 | O=C(c1ccccc1)n1c(=O)oc2ccccc21 | Non-Toxic |  |
| 99.8 | O=c1oc2ccc([N+](=O)[O-])cc2n1Cc1cccc(F)c1 | Non-Toxic |  |
| 20.7 | O=C(Cn1c(=O)oc2ccc(Cl)cc21)c1ccc(F)cc1 | Non-Toxic |  |

| IC50 [1] [µM] | Structure (SMILES) | Activity (HeLa [2]) | other results |
| --- | --- | --- | --- |
| > 100 | O=c1oc2ccccc2n1CCc1ccccc1 | Non-Toxic |  |
| 14.6 | COc1cccc(CNC(=O)n2c(=O)oc3ccc(Cl)cc32)c1 | Non-Toxic |  |
| 80.8 | O=c1oc2ccc(F)cc2n1Cc1ccc(Cl)cc1 | Non-Toxic |  |
| 50.8 | O=c1oc2ccccc2n1CC(O)c1ccc(Cl)cc1 (stereo not drawn) | Non-Toxic |  |
| > 100 | COc1ccc(NC(=O)n2c(=O)oc3ccc(Cl)cc32)cc1 | Non-Toxic |  |
| 60.9 | O=c1oc2ccc(Cl)cc2n1CC(O)c1cccc(Cl)c1 (stereo not drawn) | Non-Toxic |  |
| 99.3 | O=c1oc2ccc([N+](=O)[O-])cc2n1Cc1ccc(Cl)cc1 | Non-Toxic |  |
| 80.6 | O=c1oc2ccccc2n1CC(O)c1cccc(Cl)c1 (stereo not drawn) | Non-Toxic |  |
| 17.9 | O=c1oc2ccc(Cl)cc2n1CCc1ccccc1 | Non-Toxic |  |
| 35 | O=c1oc2ccccc2n1Cc1ccc(Cl)cc1 | Non-Toxic |  |
| 31.8 | COc1ccc(CNC(=O)n2c(=O)oc3ccccc32)cc1 | Non-Toxic |  |
| 10.2 | O=c1oc2ccc(Cl)cc2n1CC(O)c1ccc(F)cc1 (stereo not drawn) | Non-Toxic |  |
| 49.3 | O=c1oc2ccccc2n1CC(O)c1ccc(F)cc1 (stereo not drawn) | Non-Toxic |  |
| > 100 | Nc1ccc2oc(=O)n(Cc3cccc(F)c3)c2c1 | Non-Toxic |  |
| 28.5 | O=c1oc2ccc(F)cc2n1Cc1cccc(F)c1 | Non-Toxic |  |
| 99.9 | O=c1[nH]c2ccccc2n1CC(O)c1ccc(F)cc1 (stereo not drawn) | Non-Toxic |  |
